Literature values, collected in patent publication US20050267009A1, “Method of Treatment of Acute and Persistent Pain” (priority 2004, published 2005).
Where two headings read alike, the source gives them in different places.

How the values were obtained:
[1] = test system: glia and proinflammatory cytokines; details: intrathecal
nerve root injury = details: topical application of disk tissue (nucleus pulposus)
trigeminal nerve fibers = details: dura mater
NOS-2 = details: macrophages and astroglial cells, decreased NOS-2 activity and protein
interleukin-10 = details: prolonged administration
spinal VR1 receptors = biological target: T1, spinal VR1 receptors (Rattus norvegicus, UniProt O35433); details: spinal 0.5-30 microM; greater extent in sham operated than SNL rats
T1 construct: VR1 receptors, present on Adelta- and C-fibres and post-synaptic sites within the spinal cord dorsal horn; endogenous in cells; host or cells: rat spinal cord, in vivo electrophysiology
T1 sequence (O35433 whole entry): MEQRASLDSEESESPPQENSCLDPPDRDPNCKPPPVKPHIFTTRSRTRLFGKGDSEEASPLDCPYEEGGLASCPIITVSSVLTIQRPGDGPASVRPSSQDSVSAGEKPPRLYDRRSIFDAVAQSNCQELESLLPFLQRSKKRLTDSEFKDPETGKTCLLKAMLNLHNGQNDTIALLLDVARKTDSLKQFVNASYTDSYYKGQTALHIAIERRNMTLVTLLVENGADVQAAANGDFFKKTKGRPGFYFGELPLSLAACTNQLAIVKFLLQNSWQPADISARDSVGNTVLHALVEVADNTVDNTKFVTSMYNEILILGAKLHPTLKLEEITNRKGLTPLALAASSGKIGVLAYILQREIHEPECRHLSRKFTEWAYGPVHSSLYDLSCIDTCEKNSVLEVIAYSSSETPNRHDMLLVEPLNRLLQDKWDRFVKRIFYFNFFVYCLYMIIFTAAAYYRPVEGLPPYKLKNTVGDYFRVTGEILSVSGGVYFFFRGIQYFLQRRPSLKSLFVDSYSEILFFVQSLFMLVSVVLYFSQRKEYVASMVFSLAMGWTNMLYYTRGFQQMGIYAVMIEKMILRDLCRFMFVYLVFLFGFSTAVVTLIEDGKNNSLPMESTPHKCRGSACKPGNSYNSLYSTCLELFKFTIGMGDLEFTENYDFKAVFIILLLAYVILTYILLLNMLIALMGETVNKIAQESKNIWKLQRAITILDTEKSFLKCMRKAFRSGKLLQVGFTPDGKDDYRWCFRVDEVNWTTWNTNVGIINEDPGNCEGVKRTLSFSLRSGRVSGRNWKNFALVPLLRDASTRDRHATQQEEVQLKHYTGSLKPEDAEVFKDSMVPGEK

COX = details: 5 and 7 days after injection
prostaglandin E2 (PGE2) = details: 10 days after CCI, treatment started 12 hours after surgery
nociceptors = details: rat skin in vitro; for sensitization of the heat-evoked CGRP release: applied alone; for EC(50) of heat sensitization of CGRP release: heat-evoked CGRP release
[2] = test system: spinal neuronal responses
[3] = in vivo
[4] = human, in vivo
[5] = test system: spinal cord nociceptive transmission; details: for wind-up activity: normal rats
[6] = systemic HU210 60 microg/kg, sham-operated rats

Molecule: N=C(N)NC(=O)c1nc(Cl)c(N)nc1N [Amiloride]
- blockade of ASICs (ASICs): not potent and not selective

Molecule: C/C(=N\N=C(N)N)c1cc(NC(=O)CCCCCCCCC(=O)Nc2cc(/C(C)=N/N=C(N)N)cc(/C(C)=N/N=C(N)N)c2)cc(/C(C)=N/N=C(N)N)c1.Cl.Cl.Cl.Cl [CNI-1493]
- ipsilateral and mirror-image SIN-induced allodynias [1]: prevented and reversed

Molecule: CCCCCCC(C)(C)c1cc(O)c2c(c1)OC(C)(C)[C@@H]1CC=C(CO)C[C@@H]21 [HU210]
- C-fibre mediated post-discharge response of spinal neurones (spinal neurones; spinal administration 0.5-500 ng/50 microl, sham operated rats): significantly reduced
- Adelta-fibre evoked responses of spinal neurones (spinal neurones; spinal administration, both sham operated and nerve injured rats): significantly reduced
- Adelta-fibre evoked responses (spinal neurones; [6]): 48+/−5 % of control
- overall C-fibre evoked response (spinal neurones; [6]): 54+/−8 % of control
- post-discharge response (spinal neurones; [6]): 28+/−12 % of control
- C- or Abeta-fibre evoked responses of spinal neurones (spinal neurones; systemic administration, nerve injured rats): did not significantly reduce

Molecule: [Cl-].[Cl-].[Mn+2].c1cc2nc(c1)CN[C@@H]1CCCC[C@H]1NCCN[C@@H]1CCCC[C@H]1NC2 [M40403]
- anti-hyperalgesic effects with naloxone (superoxide): not reversed

Molecule: CC(=O)CCCCn1c(=O)c2c(ncn2C)n(C)c1=O [Pentoxifylline]
- nerve root injury and swelling (dorsal root ganglion compartment syndrome) (nerve root injury): prevented

Molecule: CNS(=O)(=O)Cc1ccc2[nH]cc(CCN(C)C)c2c1 [Sumatriptan]
- nerve fiber induced plasma extravasation (trigeminal nerve fibers): blocks
- nerve fiber mediated vasodilatation and dural arterial flow (trigeminal nerve fibers): only minor effects

Molecule: N=C(N)NCCCCN [agmatine]
- production of nitric oxide (NOS-2): inhibits

Molecule: CN(C)CCC=C1c2ccccc2CCc2ccccc21 [amitriptyline]
- secretion of the anti-inflammatory cytokine interleukin-10 (interleukin-10): significant increase

Molecule: Oc1cc2c(cc1O)CN(C(=S)NCCc1ccc(Cl)cc1)CCC2 [capsazepine]
- noxious evoked responses of spinal neurones (spinal VR1 receptors): reduced

Molecule: CNCCCN1c2ccccc2CCc2ccccc21 [desipramine]
- secretion of the anti-inflammatory cytokine interleukin-10 (interleukin-10): significant increase

Molecule: O=C(O)CC(O)(C(=O)O)C(F)C(=O)O (stereo not shown) [fluorocitrate]
- ipsilateral and mirror-image SIN-induced allodynias [1]: reversed

Molecule: CC(C)Cc1ccc(C(C)C(=O)O)cc1 (stereo not shown) [ibuprofen]
- mechanical allodynia induced by intraneural TNF (COX): reduced
- PGE2 levels in injured nerves and DRG (prostaglandin E2 (PGE2)): reversed

Molecule: CCCn1cnc2c1c(=O)n(CCCCC(C)=O)c(=O)n2C [propentofylline]
- glial activation and enhanced spinal proinflammatory cytokines (glial activation; following peripheral nerve injury): inhibit
- analgesic activity of morphine (glial activation; propentofylline treatment, neuropathic pain): restoration

Molecule: O=C1CCC(N2C(=O)c3ccccc3C2=O)C(=O)N1 (stereo not shown) [thalidomide]
- epineurial IL-10 immunoreactive macrophages and recovery of endoneurial IL-10-IR (TNF-alpha; CCI): enhanced
- thermal hyperalgesia and mechanical allodynia (TNF-alpha; CCI): reduces
- endoneurial IL-1 beta-immunoreactivity and IL-6-IR (TNF-alpha; CCI, lesioned rat sciatic nerve): not altered
- increase of endoneurial TNF-alpha (TNF-alpha; first week after CCI, immunohistochemistry and ELISA): reduced
- decrease in CGRP-IR and SP-IR in the dorsal horn (TNF-alpha; operated animals): not influenced
- increase in met-enkephalin in the dorsal horn (TNF-alpha; operated animals): further enhanced

Molecule: IL-6: cytokine interleukin-6
- sensitization of the heat-evoked CGRP release (nociceptors): did not induce heat sensitization
- electrically evoked C-fibre, initial C-fibre, post discharge and wind-up ([2]; following neuropathy, spinal): dose-related inhibition
- electrically evoked neuronal responses ([2]; naive rats, spinal 100-500 ng): no significant effect
- mechanical neuronal responses ([2]; neuropathic rats, spinal): markedly inhibited

Molecule: IL-8: cytokine interleukin-8
- sensitization of the heat-evoked CGRP release (nociceptors): not

Molecule: TNF-alpha
- maximum effect on heat-evoked CGRP release (nociceptors): 350%
- EC(50) of heat sensitization of CGRP release (nociceptors): 3.1 ng/mL

B1: nerve growth factor: prototypic member of the neurotrophin family (protein, UniProt P25427 122-241, looked up)
Beta-nerve growth factor: SSTHPVFHMGEFSVCDSVSVWVGDKTTATDIKGKEVTVLGEVNINNSVFKQYFFETKCRAPNPVESGCRGIDSKHWNSYCTTTHTFVKALTTDDKQAAWRFIRIDTACVCVLSRKAARRG
- hyperalgesia [3]: rapid onset of hyperalgesia
- adverse event [4]: induction of pain has been the major adverse event

B2: IL-1 beta: proinflammatory cytokine interleukin-1 beta (protein, UniProt Q63264 117-268, looked up)
Interleukin-1 beta: VPIRQLHCRLRDEQQKCLVLSDPCELKALHLNGQNISQQVVFSMSFVQGETSNDKIPVALGLKGLNLYLSCVMKDGTPTLQLESVDPKQYPKKKMEKRFVFNKIEVKTKVEFESAQFPNWYISTSQAEHRPVFLGNSNGRDIVDFTMEPVSS
- maximum effect on heat-evoked CGRP release (nociceptors): ~600%
- EC(50) of heat sensitization of CGRP release (nociceptors): 2.7 ng/mL
- wind-up scores ([5]; monoarthritic rats, any dose): did not significantly change
- wind-up activity ([5]; higher doses (8.0 ng)): marginal insignificant effect
- wind-up activity ([5]; low i.t. doses 0.03-2.0 ng): dose-dependently enhanced

B3: IL-10: natural anti-inflammatory cytokine (protein, UniProt P29456 19-178, looked up)
Interleukin-10: SKGHSIRGDNNCTHFPVSQTHMLRELRAAFSQVKTFFQKKDQLDNILLTDSLLQDFKGYLGCQALSEMIKFYLVEVMPQAENHGPEIKEHLNSLGEKLKTLWIQLRRCHRFLPCENKSKAVEQVKNDFNKLQDKGVYKAMNEFDIFINCIEAYVTLKMKN
- inflammatory mediator TNF-alpha after SCI (spinal cord injury; rats with SCI): decrease
- less spinal cord tissue loss than in untreated rats (spinal cord injury; single injection within half an hour of SCI): 49%
